Experimental data taken from patent US20110104713A1, “PRODUCTS AND PROCESSES FOR MODULATING PEPTIDE-PEPTIDE BINDING DOMAIN INTERACTIONS” (priority 2002, published 2011).
Non-standard residues stand in square brackets, D forms with d. Residues, ends and D or L forms follow the SMILES beside them. No end group written: not given here. pT = C[C@@H](OP(=O)(O)O)[C@H](N)C(=O)O; pS = N[C@@H](COP(=O)(O)O)C(=O)O

Legend:
Type in all cases: binding
[1] = biological target: T1, Plk-1 PBD (residues 326-603) (Homo sapiens, UniProt P53350); experiment: Isothermal titration calorimetry of peptides with Plk-1 PBD; conditions: for peptide binding to Plk-1 PBD by ITC (in words): no detectable binding for a Plk1 PBD concentration of at least 150 μM
T1 construct: sample cell containing 15 μM Plk-1 PBD (residues 326-603); GST (N, cleaved yes); made in house; host or cells: E. coli BL21
T1 sequence (P53350 326-603): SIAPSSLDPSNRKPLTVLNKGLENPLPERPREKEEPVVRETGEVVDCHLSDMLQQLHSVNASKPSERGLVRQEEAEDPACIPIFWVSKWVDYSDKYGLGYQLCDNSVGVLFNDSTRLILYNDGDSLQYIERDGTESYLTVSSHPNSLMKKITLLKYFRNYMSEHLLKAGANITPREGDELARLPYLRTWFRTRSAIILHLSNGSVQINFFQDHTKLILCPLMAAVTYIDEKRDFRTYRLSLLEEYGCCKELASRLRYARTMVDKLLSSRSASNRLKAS
Description: For deletion mapping of the PBD, C-terminal fragments of Plk-1 were generated by PCR and cloned into the EcoRI and XhoI sites of pcDNA3.1 (Invitrogen). For production of recombinant PBD as a GST fusion in bacteria, the 326-603 fragment of Plk-1 was ligated into the EcoRI and XhoI sites of pGEX-4T (Pharmacia), transformed into BL21, and induced in late log-phase cells at 37° C. for 3.5 hours in the presence of 0.4 mM IPTG. For measurements of peptide binding affinity by ITC, GST-Plk-1 (326-603) was isolated from bacterial lysates using glutathione agarose, cleaved from GST using thrombin (10 U/mL), and purified by anion exchange chromatography (Q Sepharose HP, Pharmacia).
Peptides were synthesized by solid phase technique with two C-terminal lysines to enhance solubility, purified by reverse phase HPLC following deprotection, and confirmed by MALDI-TOF 9 Matrix-assisted laser desorption/ionisation-time of flight mass spectrometry. Some peptides contained an additional tyrosine residue to facilitate concentration determination by optical absorbance. calorimetry measurements were performed using a VP-ITC microcalorimeter (MicroCal Inc., Studio City, Calif.). Experiments involved 10 μL injections of peptide solutions (150 μM-180 μM) into a sample cell containing 15 μM Plk-1 PBD (residues 326-603) in 50 mM Tris/HCl (pH 8.1), 200 mM NaCl, 2 mM TCEP. Thirty injections were performed with a spacing of 240 s and a reference power of 25 μCal/s. Binding isotherms were plotted and analyzed using Origin Software (MicroCal Inc. Studio City, Calif.).
Peptides were synthesized by solid phase technique with two C-terminal lysines to enhance solubility. Some peptides contained an additional tyrosine residue to facilitate concentration determination by optical absorbance. Isothermal titration calorimetry was performed using a VP-ITC microcalorimeter (MicroCal Inc. Studio City, Calif.) by titration of 15-40 μM solutions of PBD proteins with 30×10 μl injections of […] peptide in a starting volume of 1.4-2.0 ml. Binding isotherms were plotted and analyzed using Origin Software (MicroCal Inc. Studio City, Calif.). Binding of in vitro translated Plk1 PBD (wild type and mutants) to bead-immobilized pTP and TP peptide libraries was performed as described previously (Elia et al., Science 299:1228-1231, 2003). pTP and TP indicate the peptide libraries biotin-Z-Gly-Z-Gly-Gly-Ala-X-X-B-X-pThr-Pro-X-X-X-X-Ala-Lys-Lys-Lys SEQ ID NO: 30 biotin-Z-Gly-Z-Gly-Gly-Ala-X-X-B-X-Thr-Pro-X-X-X-X-Ala-Lys-Lys-Lys SEQ ID NO: 31, respectively, where pThr is phosphothreonine, Z is aminohexanoic acid, X denotes all amino acids except Cys, and B is a biased mixture of the amino acids P, L, I, V, F, M, W.

[2] = biological target: T2, GST-PTIP BRCT domains (residues 550-757) (Homo sapiens, UniProt Q6ZW49); experiment: Isothermal titration calorimetry of peptides with PTIP tandem BRCT domains; conditions: for Kd: ITC, PTIP (BRCT)2 domain
T2 construct: 15 μM GST-PTIP BRCT domains (residues 550-757); made in house; host or cells: E. coli DH5a
T2 sequence (Q6ZW49 862-1069): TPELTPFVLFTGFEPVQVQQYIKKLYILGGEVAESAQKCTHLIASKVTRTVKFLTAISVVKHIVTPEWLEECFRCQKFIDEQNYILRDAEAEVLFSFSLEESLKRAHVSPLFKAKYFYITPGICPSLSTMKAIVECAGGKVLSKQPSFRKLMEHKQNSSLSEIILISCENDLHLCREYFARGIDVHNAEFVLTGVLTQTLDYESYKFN
Text: (§1) For deletion mapping of the PTIP and BRCA1 BRCT phospho-binding region and for expression of MDC 1, 53BP1 and Rad9 (FIG. 17-18), fragments were generated by PCR for in vitro transcription/translation and cloned into a pcDNA3.1 expression vector (Invitrogen, San Diego, Calif.). For production of recombinant GST-PTIP BRCT domains and GSTBRCA1 BRCT domains, residues 550-757 of PTIP and residues 1634-1863 of BRCA1 were ligated into the EcoRI and NotI sites of pGEX-4T1 (Pharmacia, Peapack, N.J.) and subsequently transformed into DH5a E. Coli. Protein induction occurred at 37° C. for 4 hours or at 25° C. for 16 hours in the presence of 0.4 mM IPTG. For peptide filter blot analysis and measurements of peptide binding affinity by ITC, GSTPTIP BRCT domains (residues 550-757) and GST-BRCA1 BRCT domains (residues 1634-1863) were isolated from bacterial lysates using glutathione agarose, eluted with 40 mM glutathione, and dialyzed into 50 mM Tris/HCl (pH 8.1), 300 mM NaCl. The GFP-PTIP constructs FL (residues 1-757), !BRCT (residues 1-550), or (BRCT)2 (residues 550-757) were cloned into the EcoRI and SalI sites of the pEGFP-C2 (BD Biosciences Clontech Franklin Lakes, N.J.) expression vector.
(§2) Peptides were synthesized by solid phase technique with three C-terminal lysines to enhance solubility. The peptides were then purified by reverse phase HPLC following deprotection and confirmed by MALDI-TOF mass spectrometry. Calorimetry measurements were performed using a VP-ITC microcalorimeter (MicroCal Inc., Studio City, Calif.). Experiments involved serial 10 μL injections of peptide solutions (20 μM-150 μM) into a sample cell containing 15 μM GST-PTIP BRCT domains (residues 550-757) or 15 μM GST-BRCA1 BRCT domains (residues 1634-1863) in 50 mM Tris/HCl (pH 8.1), 300 mM NaCl. Twenty injections were performed with 240 second intervals between injections and a reference power of 25 μCal/s. Binding isotherms were plotted and analyzed using ORIGIN Software (MicroCal Inc. Studio City, Calif.).

[3] = biological target: T3, GST-BRCA1 BRCT domains (residues 1634-1863) (Homo sapiens, UniProt P38398); experiment: Isothermal titration calorimetry of peptides with BRCA1 tandem BRCT domains
T3 construct: 15 μM GST-BRCA1 BRCT domains (residues 1634-1863); made in house; host or cells: E. coli DH5a
T3 sequence (P38398 1634-1863): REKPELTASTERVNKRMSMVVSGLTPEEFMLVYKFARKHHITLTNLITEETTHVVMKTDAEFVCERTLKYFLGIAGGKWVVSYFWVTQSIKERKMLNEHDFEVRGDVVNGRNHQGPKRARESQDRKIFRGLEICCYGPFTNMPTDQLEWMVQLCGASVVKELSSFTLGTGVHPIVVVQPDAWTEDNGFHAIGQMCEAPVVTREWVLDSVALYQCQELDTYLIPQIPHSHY
Text: as §1, §2

[4] = biological target: T4, GST-Plk-1 PBD (residues 326-603) interaction with mitotic phosphoproteins (Homo sapiens, UniProt P53350); experiment: Peptide competition of GST-Plk-1 PBD pull-down of MPM-2 mitotic phosphoproteins from HeLa lysates; conditions: 320 μM peptide, 45 minutes at 4° C.; nocodazole-arrested HeLa lysates; listed as 7V
T4 construct: GST-Plk-1 (residues 326-603) was immobilized on glutathionine beads; made in house; host or cells: E. coli BL21
T4 sequence (P53350 326-603): as the sequence (P53350 326-603) above
Description: HeLa cells were arrested in interphase or G2/M by treatment with aphidicolin (5 μg/mL) or nocodazole (50 ng/mL), respectively, for 16 hours. Cells were lysed in 25 mM Tris/HCl (pH 7.5) containing 125 mM NaCl, 0.5% NP-40, 5 mM EDTA, 2 mM DTT, 4 μg/mL pepstatin, 4 μg/mL aprotinin, 4 μg/mL leupeptin, 1 mM Na3VO4, 50 mM NaF, and […] microcystin, and 150 μgs of lysate incubated with 10 μL of glutathione agarose beads containing 2-5 μg of GST-Plk-1 (residues 326-603), GST-Pin1, or GST for 30 minutes at 4° C. Beads were washed four times with lysis buffer. Precipitated proteins were eluted in sample buffer and detected by blotting with monoclonal MPM-2 (Upstate Biotechnology, Inc.) or polyclonal anti-Cdc25C (Santa Cruz Biotechnology, Santa Cruz, Calif.). For peptide competition experiments, GST-Plk-1 (residues 326-603) was immobilized on glutathionine beads and preincubated with 320 μM of PoloBoxtide-optimal, −8T, or −7V for 45 minutes at 4° C. For binding experiments involving mutant cdc25C, HeLa cells were transfected with wild-type and mutated versions of HA-tagged Cdc25C in pECE using Superfect (Qiagen, Valencia, Calif.). Nocodazole (50 ng/mL) was added seventeen hours after transfection and cells incubated for an additional 14 hours to arrest them in G2/M. Point mutations of Cdc25C were constructed using the QuickChange site-directed mutagenesis system (Stratagene) and verified by DNA sequencing.

PoloBoxtide-7G: mutated version of the optimal peptide, Gly at pT-1 (SEQ ID NO:69) (MAGPMQG[pT]PLNGAYKK)
peptide binding to Plk-1 PBD by ITC (in words) [1]: abolish Plk1 PBD/peptide binding

PoloBoxtide-7T: mutated version of the optimal peptide, Thr at pT-1 (SEQ ID NO:71) (MAGPMQT[pT]PLNGAYKK)
peptide binding to Plk-1 PBD by ITC (in words) [1]: abolish Plk1 PBD/peptide binding

CC[C@H](C)[C@H](NC(=O)[C@H](CC(=O)O)NC(=O)[C@H](Cc1ccc(O)cc1)NC(=O)[C@H](C)NC(=O)[C@H](C)NC(=O)CN)C(=O)N[C@@H](COP(=O)(O)O)C(=O)N[C@@H](CCC(N)=O)C(=O)N[C@H](C(=O)N[C@@H](Cc1ccccc1)C(=O)N1CCC[C@H]1C(=O)N[C@@H](Cc1ccccc1)C(=O)N[C@@H](C)C(=O)N[C@@H](CCCCN)C(=O)N[C@@H](CCCCN)C(=O)N[C@@H](CCCCN)C(=O)O)C(C)C [BRCTtide-7pS] (H-GAAYDI[pS]QVFPFAKKK-OH; N-terminus and C-terminus assumed)
Kd [2]: 280 nM
Kd ([3]; ITC, BRCT domains of BRCA1, text, read-out: dissociation constant): 400 nM

PoloBoxtide-7C: mutated version of the optimal peptide, Cys at pT-1 (SEQ ID NO:70) (MAGPMQC[pT]PLNGAYKK)
peptide binding to Plk-1 PBD by ITC (in words) [1]: abolish Plk1 PBD/peptide binding

CSCC[C@H](NC(=O)[C@@H]1CCCN1C(=O)CNC(=O)[C@H](C)NC(=O)[C@@H](N)CCSC)C(=O)N[C@@H](CCC(N)=O)C(=O)N[C@@H](CO)C(=O)N[C@H](C(=O)N1CCC[C@H]1C(=O)N[C@@H](CC(C)C)C(=O)N[C@@H](CC(N)=O)C(=O)NCC(=O)N[C@@H](C)C(=O)N[C@@H](CCCCN)C(=O)N[C@@H](CCCCN)C(=O)O)[C@@H](C)OP(=O)(O)O [PoloBoxtide-optimal, MAGPMQ-S-pT-P-LNGAKK] (H-MAGPMQS[pT]PLNGAKK-OH)
Kd [1]: 280 nM

PoloBoxtide-7A: mutated version of the optimal peptide, Ala at pT-1 (SEQ ID NO:68) (MAGPMQA[pT]PLNGAYKK)
peptide binding to Plk-1 PBD by ITC (in words) [1]: abolish Plk1 PBD/peptide binding

GAAYDISQVFPFAKKK [BRCTtide-7S]
Kd (N.D.B.) ([2]; PTIP, N.D.B = no detectable binding by ITC, tandem BRCT domain concentration of at least 150 μM): N.D.B.
Kd (N.D.B.) ([3]; BRCA1, N.D.B = no detectable binding by ITC, tandem BRCT domain concentration of at least 150 μM): N.D.B.

PoloBoxtide-7V: phosphopeptide whose serine at pThr-1 was mutated to valine (SEQ ID NO:67) (MAGPMQV[pT]PLNGAKK)
effect of peptide pre-incubation on GST-Plk-1 PBD binding of MPM-2 epitopes [4]: had no effect

CC[C@H](C)[C@H](NC(=O)[C@H](CC(=O)O)NC(=O)[C@H](Cc1ccc(O)cc1)NC(=O)[C@H](C)NC(=O)[C@H](C)NC(=O)CN)C(=O)N[C@H](C(=O)N[C@@H](CCC(N)=O)C(=O)N[C@H](C(=O)N[C@@H](Cc1ccccc1)C(=O)N1CCC[C@H]1C(=O)N[C@@H](Cc1ccccc1)C(=O)N[C@@H](C)C(=O)N[C@@H](CCCCN)C(=O)N[C@@H](CCCCN)C(=O)N[C@@H](CCCCN)C(=O)O)C(C)C)[C@@H](C)OP(=O)(O)O [BRCTtide-7pT] (H-GAAYDI[pT]QVFPFAKKK-OH; N-terminus and C-terminus assumed)
Kd [2]: 14300 nM
